Measurements published in patent publication US10829742B2, “Production of xylitol from glucose by a recombinant strain” (ROQUETTE FRERES, priority 2014, dated 2020).
Read-outs that look alike come from different tables or passages of the source. Values belong to the compound of their own block, whether it stands above or below them.

Legend:
[1] = test system: NADH-specific D-ketopentose-oxidoreductase; settings: crude extract; cited from earlier work
[2] = test system: NADPH-specific D-ketopentose-oxidoreductase; settings: crude extract; cited from earlier work
[3] = test system: NADPH-specific D-ketopentose-oxidoreductase; test: NADPH-specific D-ketopentose-oxidoreductase kinetic parameters; format: biochemical, P. ohmeri ATCC 20209; settings: NADP^+ added in excess, in vitro
Source text: As an illustration of its performances, the following tables indicate the enzyme activities involved in the arabitol metabolic pathway of Pichia ohmeri (Sophie […] Thesis, 1992) The Michaelis-Menten constants highlight the affinities of the NADH and NADPH-D-ketopentose-oxidoreductases for each substrate and the corresponding maximum velocities. [table] The Haldane relationship predicts in vivo enzyme kinetic behaviors. The inhibitory effect of NADP^+ on NADPH-specific D-ketopentose-oxidoreductase has been determined in vitro. The activity is 80% less when NADP^+ is added in excess.

Acid phosphatase = settings: crude extract; cited from earlier work
[4] = test system: D-Ribulose-5-P 3-epimerase; settings: crude extract; cited from earlier work
[5] = test system: D-Ribose-5-P keto-isomerase; settings: crude extract; cited from earlier work
Transketolase = settings: crude extract, cited from earlier work

SMILES: OC[C@@H](O)[C@H](O)[C@@H](O)CO [Xylitol]
Km [1]: 7 mM | VM [1]: 0.2 U/mg | VM [2]: 0.15 U/mg

SMILES: O=C(CO)[C@H](O)[C@H](O)CO [D-Ribulose]
Km [1]: 90 mM | VM [1]: 1 U/mg | Km [2]: 72 mM | VM [2]: 3.4 U/mg

inhibitory effect: activity less [3]: 80%
SMILES: NC(=O)c1ccc[n+]([C@@H]2O[C@H](COP(=O)([O-])OP(=O)(O)OC[C@H]3O[C@@H](n4cnc5c(N)ncnc54)[C@H](OP(=O)(O)O)[C@@H]3O)[C@@H](O)[C@H]2O)c1 [NADP^+]

SMILES: OC[C@@H](O)[C@@H](O)[C@@H](O)CO [Ribitol]
Km [1]: 16 mM | VM [1]: 0.16 U/mg

SMILES: OC[C@@H](O)C(O)[C@H](O)CO [D-Arabitol]
VM [2]: 0.8 U/mg

SMILES: O=C(CO)[C@H](O)[C@H](O)COP(=O)(O)O [D-Ribulose-5-P]
Km (Acid phosphatase): 4.3 mM | VM (Acid phosphatase): 0.65 U/mg | Km [4]: 6.3 mM | VM [4]: 3 U/mg | Km [5]: 0.35 mM | VM [5]: 1.8 U/mg

SMILES: O=C(CO)[C@@H](O)[C@H](O)COP(=O)(O)O [D-Xylulose-5-P]
Km (Acid phosphatase): 16 mM | VM (Acid phosphatase): 0.11 U/mg | Km [4]: 6.6 mM | VM [4]: 0.7 U/mg | Km (Transketolase; Transketolase (D-ribose-5-P)): 0.2 mM | VM (Transketolase; Transketolase (D-ribose-5-P)): 0.9 U/mg | Km (Transketolase; Transketolase (Erythrose-4-P)): 0.6 mM | VM (Transketolase; Transketolase (Erythrose-4-P)): 1.45 U/mg

SMILES: O=C(CO)[C@@H](O)[C@H](O)CO [D-Xylulose]
Km [1]: 5 mM | VM [1]: 0.6 U/mg | VM [2]: 1.5 U/mg
